As a reminder, the IC50 is the midpoint of a concentration-inhibition curve.

The source of these data is patent US20260317320A1, “C5AR1 ANTAGONISTS AND USES THEREOF” (Vanqua Bio, Inc., priority 2022, published 2026).

Experiment [1] deals with T1, complement C5a receptor 1 (C5aR1) (Homo sapiens, UniProt P21730).
T1 construct: β-galactosidase fragment (PathHunter enzyme complementation); host or cells: CHO-K1 (PathHunter CHO-K1 C5aR1 β-arrestin cell line)
T1 sequence (P21730 1-350): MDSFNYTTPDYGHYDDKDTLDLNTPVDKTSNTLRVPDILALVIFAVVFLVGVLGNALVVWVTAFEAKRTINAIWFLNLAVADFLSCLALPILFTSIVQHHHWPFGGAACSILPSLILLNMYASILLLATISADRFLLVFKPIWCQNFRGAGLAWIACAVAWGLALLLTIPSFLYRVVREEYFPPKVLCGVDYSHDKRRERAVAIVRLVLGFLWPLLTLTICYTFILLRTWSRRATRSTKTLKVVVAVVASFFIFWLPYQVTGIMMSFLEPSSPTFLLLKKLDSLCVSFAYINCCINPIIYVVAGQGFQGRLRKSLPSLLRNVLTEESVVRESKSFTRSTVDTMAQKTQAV
The experiment is described as follows: β-arrestin recruitment via C5aR1 activation in live CHO-K1 cells (PathHunter), agonist mode. In kind it is cell-based. In a few lines: (§1)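 Live CHO-K1 cells expressing β-galactosidase fragments fused to β-arrestin and C5aR1; recruitment is read by fragment complementation. In agonist mode compounds are tested alone; in antagonist mode they compete against recombinant hC5a at EC90. IC50 reported in binned ranges.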
(In general: Activated receptors often draw arrestin, which recruitment assays turn into a signal.)

For experiment [2], the target named is T1, complement C5a receptor 1 (C5aR1). The experiment is described as follows: β-arrestin recruitment via C5aR1 activation in live CHO-K1 cells (PathHunter), antagonist mode. It is filed as cell-based. In short, it runs like this: as §1
Where [3] appears, read: antagonist mode, recombinant hC5a (EC90) as competing natural agonist, live CHO-K1 cells, read-out: [Antagonist] B-arrestin2 recruitment: Average IC50.

Read-outs that look alike come from different tables or passages of the source. Bounds are passed on as bounds.

With `Cc1cccc(F)c1N1CCC(c2c(C)c3nccnc3n(Cc3nccnc3C(F)(F)F)c2=O)CC1` [compound 22, 7-(1-(2-Fluoro-6-methylphenyl)piperidin-4-yl)-8-methyl-5-((3-(trifluoromethyl)pyrazin-2-yl)methyl)pyrido[2,3-b]pyrazin-6(5H)-one], the “[Agonist] B-arrestin2 recruitment: Average EC50 (nM)” value (shortened to “[Agonist] B-arrestin2 recruitment”) in experiment [1] is “Non-Active”. Moreover, in experiment [2] (setting [3]), the IC50 lay in the range of 500 to 5000 nM.

For `Cc1cnc2cc(C3CCN(c4cccnc4C(F)(F)F)CC3)c(=O)n(Cc3ncccc3C(F)(F)F)c2n1` [compound 157, 3-Methyl-5-((3-(trifluoromethyl)pyridin-2-yl)methyl)-7-(1-(2-(trifluoromethyl)pyridin-3-yl)piperidin-4-yl)pyrido[2,3-b]pyrazin-6(5H)-one], the “[Agonist] B-arrestin2 recruitment” value in experiment [1] (at 10 μM) is listed as “Non-Active at 10 μM”. The IC50 in experiment [2] (setting [3]) lay within 500 to 5000 nM.

Turning to `Cc1cccc(F)c1N1CCC(c2cc3nccnc3n([C@H]3CCCc4cccnc43)c2=O)CC1` [40b, (S)-7-(1-(2-Fluoro-6-methylphenyl)piperidin-4-yl)-5-(5,6,7,8-tetrahydroquinolin-8-yl)pyrido[2,3-b]pyrazin-6(5H)-one], the “[Agonist] B-arrestin2 recruitment” value in experiment [1] is “Non-Active”. Also, the IC50 in experiment [2] (setting [3]) is greater than 100000 nM.

Consider `Cc1cnc2cc([C@H]3CC[C@@H](c4c(C)cccc4F)CC3)c(=O)n(Cc3nccnc3C)c2n1` [137A, (S)-7-((1s,4s)-4-(2-Fluoro-6-methylphenyl)cyclohexyl)-3-methyl-5-((3-methylpyrazin-2-yl)methyl)pyrido[2,3-b]pyrazin-6(5H)-one], for which, in experiment [1], the “[Agonist] B-arrestin2 recruitment” value was “Non-Active”. For the same compound, the IC50 in experiment [2] (setting [3]) fell in the range of 5000 to 100000 nM.

`Cc1ccc2cc([C@H]3CC[C@H](c4c(C)cccc4F)CC3)c(=O)n(Cc3ncccc3OC(F)F)c2n1` [compound 195, 1-((3-(Difluoromethoxy)pyridin-2-yl)methyl)-3-((1r,4r)-4-(2-fluoro-6-methylphenyl)cyclohexyl)-7-methyl-1,8-naphthyridin-2(1H)-one]: in experiment [1], the “[Agonist] B-arrestin2 recruitment” value is “Non-Active”. The IC50 in experiment [2] (setting [3]) is less than 500 nM.

In the case of `Cc1ccc2cc([C@H]3CC[C@H](c4c(C)cccc4F)CC3)c(=O)n(Cc3ncccc3CC(F)(F)F)c2n1` [compound 239, 3-((1r,4r)-4-(2-fluoro-6-methylphenyl)cyclohexyl)-7-methyl-1-((3-(2,2,2-trifluoroethyl)pyridin-2-yl)methyl)-1,8-naphthyridin-2(1H)-one], in experiment [1], the “[Agonist] B-arrestin2 recruitment” value is reported as “Non-Active”. Moreover, in experiment [2] (setting [3]), the concentration for half-maximal inhibition (IC50) was less than 500 nM.

With `Cc1cccc(F)c1[C@H]1CC[C@H](c2cc3nc(CC(F)(F)F)cnc3n(Cc3ncccc3C(F)(F)F)c2=O)CC1` [compound 228, 7-((1r,4r)-4-(2-Fluoro-6-methylphenyl)cyclohexyl)-2-(2,2,2-trifluoroethyl)-5-((3-(trifluoromethyl)pyridin-2-yl)methyl)pyrido[2,3-b]pyrazin-6(5H)-one], in experiment [1] (at 10 μM), the “[Agonist] B-arrestin2 recruitment” value is recorded as “Non-Active at 10 μM”. Moreover, in experiment [2] (setting [3]), the IC50 is less than 500 nM.

Consider `Cc1cnc2cc([C@H]3CC[C@H](c4c(C)cccc4F)CC3)c(=O)n(Cc3ncccc3C(C)(F)F)c2n1` [compound 177, 5-((3-(1,1-Difluoroethyl)pyridin-2-yl)methyl)-7-((1r,4r)-4-(2-fluoro-6-methylphenyl)cyclohexyl)-3-methylpyrido[2,3-b]pyrazin-6(5H)-one], for which, in experiment [1], the “[Agonist] B-arrestin2 recruitment” value is “Non-Active”. The IC50 in experiment [2] (setting [3]) was less than 500 nM.

On to `Cc1cnc2cc([C@H]3CC[C@@H](c4c(C)cccc4F)C3)c(=O)n(Cc3nccnc3C(F)(F)F)c2n1` [197A, 7-((1S,3R)-3-(2-Fluoro-6-methylphenyl)cyclopentyl)-3-methyl-5-((3-(trifluoromethyl)pyrazin-2-yl)methyl)pyrido[2,3-b]pyrazin-6(5H)-one], for which the “[Agonist] B-arrestin2 recruitment” value in experiment [1] (at 10 μM) is listed as “Non-Active at 10 μM”. Further, in experiment [2] (setting [3]), the 50% inhibitory concentration (IC50) was less than 500 nM.

For the compound `Cc1cnc2c(=O)n(C3CCN(c4c(C)cccc4F)CC3)c(=O)n(Cc3ncccc3C(F)(F)F)c2n1` [compound 50, 3-(1-(2-Fluoro-6-methylphenyl)piperidin-4-yl)-7-methyl-1-((3-(trifluoromethyl)pyridin-2-yl)methyl)pteridine-2,4(1H,3H)-dione], the “[Agonist] B-arrestin2 recruitment” value in experiment [1] is reported as “Non-Active”. Also, in experiment [2] (setting [3]), the IC50 was 500 to 5000 nM.

For `COc1nccnc1Cn1c(=O)c(N2CCN(c3c(C)cccc3F)CC2)cc2ncc(C)nc21` [compound 125, 7-(4-(2-Fluoro-6-methylphenyl)piperazin-1-yl)-5-((3-methoxypyrazin-2-yl)methyl)-3-methylpyrido[2,3-b]pyrazin-6(5H)-one], the “[Agonist] B-arrestin2 recruitment” value in experiment [1] is on record as “Non-Active”. The IC50 in experiment [2] (setting [3]) is 500 to 5000 nM.

As to `Cc1cccc(F)c1N1CCC(c2cc3nccnc3n(Cc3ccncc3C(F)(F)F)c2=O)CC1` [compound 17, 7-(1-(2-Fluoro-6-methylphenyl)piperidin-4-yl)-5-((3-(trifluoromethyl)pyridin-4-yl)methyl) pyrido[2,3-b]pyrazin-6(5H)-one], in experiment [1], the “[Agonist] B-arrestin2 recruitment” value is listed as “Non-Active”. In addition, the 50% inhibitory concentration (IC50) in experiment [2] (setting [3]) lay in the range of 500 to 5000 nM.

Regarding `Cc1cnc2cc([C@@H]3CC[C@H](c4c(C)cccc4F)C3)c(=O)n(Cc3nccnc3C)c2n1` [172B, 7-((1R,3S)-3-(2-Fluoro-6-methylphenyl)cyclopentyl)-3-methyl-5-((3-methylpyrazin-2-yl)methyl)pyrido[2,3-b]pyrazin-6(5H)-one], in experiment [1] (at 10 μM), the “[Agonist] B-arrestin2 recruitment” value is recorded as “Non-Active at 10 μM”. For the same compound, the IC50 in experiment [2] (setting [3]) fell in the range of 500 to 5000 nM.

`Cc1cnc2cc(C3CCN(c4c(C)cccc4F)CC3)c(=O)n([C@@H]3CCCc4nccnc43)c2n1` [61b, (R)-7-(1-(2-fluoro-6-methylphenyl)piperidin-4-yl)-3-methyl-5-(5,6,7,8-tetrahydroquinoxalin-5-yl)pyrido[2,3-b]pyrazin-6(5H)-one]: in experiment [1], the “[Agonist] B-arrestin2 recruitment” value is recorded as “Non-Active”. Besides, the 50% inhibitory concentration (IC50) in experiment [2] (setting [3]) was less than 500 nM.

Regarding `Cc1ccc2nc(C3CCN(c4c(C)cccc4F)CC3)c(=O)n(Cc3nccnc3C(F)(F)F)c2c1` [144A, 3-(1-(2-Fluoro-6-methylphenyl)piperidin-4-yl)-7-methyl-1-((3-(trifluoromethyl)pyrazin-2-yl)methyl)quinoxalin-2(1H)-one], the “[Agonist] B-arrestin2 recruitment” value in experiment [1] (at 10 μM) is recorded as “Non-Active at 10 μM”. Moreover, in experiment [2] (setting [3]), the IC50 was greater than 100000 nM.

As for `Cc1cccc(F)c1N1CCC(c2cc3nccnc3n(Cc3cnc(C(F)(F)F)cn3)c2=O)CC1` [compound 27, 7-(1-(2-Fluoro-6-methylphenyl)piperidin-4-yl)-5-((5-(trifluoromethyl)pyrazin-2-yl)methyl)pyrido[2,3-b]pyrazin-6(5H)-one], the “[Agonist] B-arrestin2 recruitment” value in experiment [1] is reported as “Non-Active”. Moreover, in experiment [2], the IC50 was greater than 100000 nM.

Regarding `Cc1cnc2cc(C3CCN(c4nnccc4C(F)(F)F)CC3)c(=O)n(Cc3ncccc3C(F)(F)F)c2n1` [compound 165, 3-Methyl-7-(1-(4-(trifluoromethyl)pyridazin-3-yl)piperidin-4-yl)-5-((3-(trifluoromethyl)pyridin-2-yl)methyl)pyrido[2,3-b]pyrazin-6(5H)-one], the “[Agonist] B-arrestin2 recruitment” value in experiment [1] (at 10 μM) is given as “Non-Active at 10 μM”. Further, the IC50 in experiment [2] (setting [3]) was less than 500 nM.

In the case of `Cc1cnc2cc([C@H]3CC[C@@H](c4c(C)cccc4F)C3)c(=O)n(Cc3nccnc3C)c2n1` [172A, 7-((1S,3R)-3-(2-Fluoro-6-methylphenyl)cyclopentyl)-3-methyl-5-((3-methylpyrazin-2-yl)methyl)pyrido[2,3-b]pyrazin-6(5H)-one], the “[Agonist] B-arrestin2 recruitment” value in experiment [1] (at 10 μM) is listed as “Non-Active at 10 μM”. Moreover, in experiment [2] (setting [3]), the IC50 was 500 to 5000 nM.

Take `Cc1cnc2cc([C@H]3CC[C@H](c4c(C)cccc4F)CC3)c(=O)n(Cc3ncccc3OC(F)F)c2n1` [compound 212, 5-((3-(Difluoromethoxy)pyridin-2-yl)methyl)-7-((1r,4r)-4-(2-fluoro-6-methylphenyl)cyclohexyl)-3-methylpyrido[2,3-b]pyrazin-6(5H)-one]: in experiment [1] (at 10 μM), the “[Agonist] B-arrestin2 recruitment” value is reported as “Non-Active at 10 μM”. Besides, the half-inhibitory concentration (IC50) in experiment [2] (setting [3]) was less than 500 nM.

Take `Cc1cccc(F)c1N1CCC(n2c(=O)c3nccnc3n(Cc3ncccc3C(F)(F)F)c2=O)CC1` [compound 42, 3-(1-(2-Fluoro-6-methylphenyl)piperidin-4-yl)-1-((3-(trifluoromethyl)pyridin-2-yl)methyl)pteridine-2,4(1H,3H)-dione]: the “[Agonist] B-arrestin2 recruitment” value in experiment [1] is “Non-Active”. In experiment [2] (setting [3]), the IC50 was 500 to 5000 nM.

With `Cc1nccnc1Cn1c(=O)c(C2CCN(c3c(F)cccc3C(F)(F)F)CC2)cc2nccnc21` [compound 126, 7-(1-(2-Fluoro-6-(trifluoromethyl)phenyl)piperidin-4-yl)-5-((3-methylpyrazin-2-yl)methyl)pyrido[2,3-b]pyrazin-6(5H)-one], the “[Agonist] B-arrestin2 recruitment” value in experiment [1] is given as “Non-Active”. The IC50 in experiment [2] (setting [3]) was in the range of 500 to 5000 nM.

As to `CCCc1cnc2cc([C@H]3CC[C@H](c4c(C)cccc4F)CC3)c(=O)n(Cc3ncccc3C(F)(F)F)c2n1` [compound 227, 7-((1r,4r)-4-(2-Fluoro-6-methylphenyl)cyclohexyl)-3-propyl-5-((3-(trifluoromethyl)pyridin-2-yl)methyl)pyrido[2,3-b]pyrazin-6(5H)-one], the “[Agonist] B-arrestin2 recruitment” value in experiment [1] (at 10 μM) is on record as “Non-Active at 10 μM”. The IC50 in experiment [2] (setting [3]) was less than 500 nM.
